Marks after values point to notes of the source that are not given here. Blank lines part the entries; values can stand above or below the compound they belong to.
Assay: UV absorption spectra measured in solution
Format: physicochemical
Excerpt: In the case of a write-once optical data carrier according to the invention which is written on and read by means of the light of a blue laser, preference is given to merocyanine dyes whose absorption maximum λmax1 is in the range from 340 to 410 nm, […] half of the […] one tenth of the absorbance value at λmax1 are preferably not more than 50 nm apart. Such a merocyanine dye preferably has no longer-wavelength maximum λmax2 up to a wavelength of 500 nm, particularly preferably up to 550 nm, very particularly preferably up to 600 nm.
The absorption spectra are measured, for example, in solution.
Suitable merocyanines having the required spectral properties are, in particular, those in which the dipole moment change Δμ=|μg−μag|, i.e. the positive difference between the dipole moments in the ground state and in the first excited state, is very small, preferably <5 D, particularly preferably <2 D. A method of determining such a dipole moment change Δμ is described, for example, in F. Würthner et al., Angew. Chem. 1997, 109, 2933, and in the literature cited therein. A low solvent-induced wavelength shift (dioxane/DMF) is likewise a suitable selection criterion. Preference is given to merocyanines whose solvent-induced wavelength shift Δλ=|λDMF−λdioxane|, i.e. the positive difference between the absorption wavelengths in the solvents dimethylformamide and dioxane, is <20 nm, particularly preferably <10 nm, very particularly preferably <5 nm

[1] = Table 1, on the long wavelength flank
[2] = Table 1, on the short wavelength flank
[3] = Table 2, on the short wavelength flank

- ε (Table 2): 109380 L/mol/cm
- λmax (Table 2, in methylene chloride): 490^6) nm
- Δλ (Table 2, |λDMF - λdioxane|): 5 nm
SMILES: CCCCN1C(=O)C(=CC=C2Oc3ccccc3N2CC)C(C)=C(C#N)C1=O [Example 55]

- ε (Table 2): 47640 L/mol/cm
- λmax (Table 2, in dioxane): 473 nm
SMILES: COc1ccc2c(c1)C(C)(C)C(=CC=C1C(=O)N(c3ccc(C4CCS(=O)(=O)C4)cc3)N=C1C)N2C (stereo not drawn) [Example 50]

- ε (Table 1): 112260 L/mol/cm
- λmax (Table 1, in dioxane): 535 nm
- λ1/2-λ1/10 [1]: 13^4) nm
SMILES: CCCCN(CCCC)c1ccc(C=C2C(=O)N(CCOC)C(=O)C(C#N)=C2C)s1 [Example 14]

- ε (Table 2): 50900 L/mol/cm
- λmax (Table 2, in methanol): 554^5) nm
SMILES: COC(=O)c1ccc2c(c1)C(C)(C)C(=CC=c1c(C)c(C#N)c(=C(C#N)C#N)[nH]c1=O)N2C [Example 67]

- ε (Table 1): 106640 L/mol/cm
- λmax (Table 1, in dioxane): 539 nm
SMILES: CCCCN(CCCC)c1ccc(C=C2C(=O)N(C)C(=O)C(C#N)=C2C)o1 [Example 10]

- λmax (Table 3, in dioxane): 337 nm
SMILES: CCCN1C(=O)C(=CC(C)=CN(C)C)C(C)=C(C#N)C1=O [Example 83]

- λmax (Table 3, in dioxane): 366 nm
SMILES: COC(=O)C(=CC=CN1CCOCC1)C(=O)OC [Example 78]

- ε (Table 1): 62860 L/mol/cm
- λmax (Table 1, in dioxane): 502 nm
- λ1/2-λ1/10 [2]: 33^3) nm
SMILES: CCCN1C(=O)C(=Cc2cnc(N(C)C)s2)C(C)=C(C#N)C1=O [Example 6]

- ε (Table 2): 76130 L/mol/cm
- λmax (Table 2, in dioxane): 469 nm
- λ1/2-λ1/10 [3]: 28^3) nm
- Δλ (Table 2, |λDMF - λdioxane|): 3 nm
SMILES: CN1C(=CC=C2C(=O)CC(C)(C)CC2=O)C(C)(C)c2ccccc21 [Example 41]

SMILES: CCCCN(CCCC)c1ccc(C=C2C(=O)N(C)C(=S)N(C)C2=O)o1 [Example 29]
- ε (Table 1): 153420 L/mol/cm
- λmax (Table 1, in dioxane): 508 nm
- λ1/2-λ1/10 [1]: 11^4) nm

- ε (Table 2): 76260 L/mol/cm
- λmax (Table 2, in dioxane): 448 nm
- λ1/2-λ1/10 [3]: 27^3) nm
- Δλ (Table 2, |λDMF - λdioxane|): 2 nm
SMILES: CN1C(=CC=C2C(=O)OC(C)(C)OC2=O)C(C)(C)c2ccccc21 [Example 40]

- ε (Table 1): 62026 L/mol/cm
- λmax (Table 1, in dioxane): 472 nm
- λ1/2-λ1/10 [2]: 42^3) nm
SMILES: CCN(CC)c1ncc(C=C2C(=O)c3ccccc3C2=O)s1 [Example 32]

SMILES: CCCCCCCCCCCCN1C(=O)C(=Cc2ccc(N(C)C)o2)C(=O)N(C)C1=O [Example 15]
- ε (Table 1): 53360 L/mol/cm
- λmax (Table 1, in dioxane): 483 nm

- ε (Table 2): 62720 L/mol/cm
- λmax (Table 2, in dioxane): 496 nm
SMILES: CCOC(=O)C1=NN(c2ccccc2)C(=O)C1=CC=C1N(C)c2ccc(C(=O)OC)cc2C1(C)C [Example 52]

- ε (Table 3): 89100 L/mol/cm
- λmax (Table 3, in DMF): 564^6) nm
SMILES: CCCCN1C(=O)C(=CC=CN(C)C)C(C(F)(F)F)=C(C#N)C1=O [Example 71]

- ε (Table 2): 57230 L/mol/cm
- λmax (Table 2, in dioxane): 462 nm
- λ1/2-λ1/10 [3]: 34^3) nm
SMILES: CN1C(=CC=C(C#N)c2nc3ccccc3s2)C(C)(C)c2ccccc21 [Example 57]

SMILES: CCCCN(CCCC)c1ccc(C=C2C(=O)N(C)C(=O)N(C)C2=O)o1 [Example 9]
- ε (Table 1): 117700 L/mol/cm
- λmax (Table 1, in DMF): 490^6) nm

- ε (Table 1): 78400 L/mol/cm
- λmax (Table 1, in dioxane): 508 nm
SMILES: CCCCN(CCCC)c1ncc(C=C2C(=O)N(CC)C(=O)C(C#N)=C2C)s1 [Example 13]

- ε (Table 3): 89800 L/mol/cm
- λmax (Table 3, in dioxane): 458 nm
- λ1/2-λ1/10 (Table 3, on the short wavelength flank): 28^3) nm
SMILES: C=C(C)C(=O)OCCN1C(=O)C(=CC=CN2CCOCC2)C(C)=C(C#N)C1=O [Example 76]

- ε (Table 3): 119800 L/mol/cm
- λmax (Table 3, in dioxane): 585 nm
- λ1/2-λ1/10 (Table 3, on the long wavelength flank): 28^4) nm
SMILES: CCN1C(=O)C(=CC=CC=CN(C)c2ccccc2)C(C)=C(C#N)C1=O [Example 80]

- λmax (Table 3, in methanol): 509^5) nm
SMILES: CCOC(=O)C(C#N)=c1[nH]c(=O)c(=CC=CN(C)C)c(C)c1C(=O)OCC [Example 85]

- ε (Table 3): 84070 L/mol/cm
- λmax (Table 3, in dioxane): 447 nm
SMILES: CN(C=CC=C1C(=O)c2ccccc2C1=O)c1ccccc1 [Example 73]

- ε (Table 1): 128960 L/mol/cm
- λmax (Table 1, in dioxane): 535 nm
- Δλ (Table 1, |λDMF-λdioxane|): 1.3 nm
SMILES: CCCCCCN1C(=O)C(=Cc2ccc(N(C)C)o2)C(C)=C(C#N)C1=O [Example 16]

- ε (Table 2): 102220 L/mol/cm
- λmax (Table 2, in dioxane): 487 nm
- λ1/2-λ1/10 [3]: 35^3) nm
- Δλ (Table 2, |λDMF - λdioxane|): 6 nm
SMILES: CN1C(=CC=C2C(=O)c3ccccc3C2=O)C(C)(C)c2ccccc21 [Example 39]

— patent US20030003396A1, “Optical data carrier comprising a merocyanine dye as light-absorbent compound in the information layer” (priority 2001, published 2003)
